Measurements: US20080118489A1, “Charge-Modified Lysozyme Antimicrobial Compositions, Surfactants, and Methods for Infections and Cystic Fibrosis” (priority 2005, published 2008)
In brackets after ≈: the same amount, converted by molar mass.

Legend:
[1] = tested on: Pseudomonas aeruginosa (PA01); experiment: Bacterial killing assay, tobramycin with or without mucin; type: cell-based
Description: Tobramycin sequestration was also measured via bacteriological killing assays. In these bacterial killing assay experiments Pseudomonas aeruginosa (PA01), the primary bacteria responsible for infection in CF patients, was incubated in the presence of mucin, DNA, tobramycin, lipid or various mixtures of these four materials. Killing assays were performed in the following manner: PA01 was grown in cation adjusted Mueller-Hinton media to a concentration greater than 5×10^8, sedimented by centrifugation and resuspended in a buffered solution of 5 mM Tris 5 mM PIPES and 100 mM NaCl at pH 7.2. A quantity of […]. of PAO1 were incubated for 3.5 hours in the buffered salt solution with varied concentrations of tobramycin, DNA, mucin, and lipids. The mucin concentrations were either 0 mg/ml (control) or 10 mg/ml which is near the physiologically measured concentrations of mucin. Lipids added to the bacterial solution were added in varying concentrations in order to determine the amount needed to release tobramycin from its strong interaction with mucin and/or DNA. The bacterial solution was serially diluted and plated on MH-agar plates. Plates were incubated overnight and the number of bacterial colonies counted.

Calf thymus (CT) DNA = experiment: SAXS of DNA + tobramycin (+ cationic lipid) suspensions; type: binding
Description: For our studies of the sequestration of aminoglycoside antibiotics by model CF sputum and subsequent release by the administration of surfactants we used the following materials. The aminoglycoside antibiotic used in our experiments was Tobramycin (Sigma Aldrich), commonly used to treat infections of Pseudomonas aeruginosa in CF patients. […] For the DNA+tobramycin experiments we used Calf thymus (CT) DNA (USB Corp. Cleveland Ohio), purified it using standard techniques, and resuspended it in an aqueous solution of 100 mM NaCl 5 mM Tris and 5 mM PIPES adjusted to pH 7. DNA has a charge of approximately −2/base pair.
Surfactant materials used in the present experiments were a mixture of two lipids DOTAP (1,2-Dioleoyl-3-Trimethylammonium-Propane) and DOPE (1,2-Dioleoyl-sn-Glycero-3-Phosphoethanolamine) (Avanti Polar lipids, Alabaster Al.) in mass ratios of about 70:30 and about 25:75. DOTAP is a cationic lipid (charge of +1) with no curvature, and DOPE is a neutral lipid with negative curvature. Briefly, the lipids were first dissolved in chloroform, then dried under nitrogen and redissolved in an aqueous solution. The aqueous salt solution was then sonicated to form unilamellar lipid vescicles, and filtered through 0.2 micron pores.
Aminoglycoside antibiotic sequestration by negatively charged bio-polymers in respiratory mucous of CF patients was measured via two techniques. The first method was to use x-ray diffraction techniques to discern the structure of suspensions of mixtures of biopolymers and antibiotic. Specific x-ray diffraction studies were done to determine the structure of mixtures of the DNA with tobramycin and the lipid mixture. The isoelectric DNA-lipid-monovalent salt solutions were sealed in 1.5 mm quartz capillaries (Hilgenberg GmbH; Malsfeld, Germany) and mixed thoroughly by centrifugation. The approximate sample volume in the capillary was 30 μl-60 μl. SAXS experiments were performed as described previously. Tobramycin has charge of approximately +5 at physiological pH, whereas DNA is negatively charged, thus when the ratio of net DNA charge is approximately equal to the net tobramycin charge (T/D˜1), the tobramycin condenses the DNA. The resulting structure is a bundle of DNA. The structures observed via x-ray diffraction indicate whether or not the tobramycin is sequestered with the DNA or free in suspension. The present invention uses positively charged lipids to replace the tobramycin in these bundles, thereby increasing the efficacy of the antibiotic. Consequently, our experiments used a fixed DNA concentration of 3 mg/ml (x-ray experiments) and a varied concentration of tobramycin and/or lipid. Concentrations are varied such that the ratio of positive to negative charges is known. Similar x-ray diffraction studies can be conducted wherein mucin, instead of DNA, is the sequestration agent to examine mucin+tobramycin+lipid complexes and kinetics.

F-actin = molecular target: T1, F-actin (Oryctolagus cuniculus, UniProt P68135); experiment: SAXS of F-actin / hen egg white lysozyme bundles; type: binding, rabbit
T1 construct: prepared from a lyophilized powder of rabbit skeletal muscle; purchased Cytoskeleton, Inc. (Denver, Col.); host or cells: rabbit skeletal muscle (tissue-derived)
Description: Monomeric G-actin (MW 42,000) was prepared from a lyophilized powder of rabbit skeletal muscle purchased from Cytoskeleton, Inc. (Denver, Col.). The non-polymerizing G-actin solution contained a 5 mM TRIS buffer at pH 8.0, with 0.2 mM CaCl2, 0.5 mM ATP, and 0.2 mM DTT and 0.01% NaN3. G-actin (2 mg/ml) was polymerized into F-actin (linear charge density λA˜−1 e /2.5 Å at pH 7) upon the addition of salt (100 mM KCl). Human plasma gelsolin (Cytoskeleton, Inc., Denver, Col.) was used to control the average F-actin length between 0.1 μm to 10 μm. The filaments were treated with phalloidin (Sigma Aldrich, St. Louis, Mo., MW 789.2) to prevent actin depolymerization and resuspended to a final concentration of ˜26.67 mg/ml using Millipore (Billerica, Mass.) H2O (18.2MΩ). Hen Egg White Lysozyme (MW 14,300, Sigma Aldrich, St. Louis, Mo.) was dissolved in Millipore H2O (18.2MΩ) to a final concentration ˜25 mg/ml. Lysozyme carries a pH dependent charge of +9 or +10 and has dimensions of approximately ˜26Å×26Å×45 Å.
The F-actin—lysozyme isoelectric point is found at a concentration ratio of ˜2.5:1 F-actin:lysozyme. X-ray samples were prepared at various F-actin:lysozyme concentration ratios on either side of the isoelectric point, including 2:1, 2.5:1, 3:1, and 5:1. […]

Compound	tobramycin concentration until which mucin inhibits killing ability ([1]; 10 mg/ml mucin)	MIC ([1]; Pseudomonas aeruginosa, 3.5 hours, 5 mM Tris 5 mM PIPES 100 mM NaCl pH 7.2, read-out: minimal inhibitory concentration (MIC))	biological accessibility, fraction of the available dose ([1]; sequestration by anionic polyelectrolytes of CF sputum)	ratio of tobramycin charge to DNA charge (T/D) at which bundled DNA peak appears (Calf thymus (CT) DNA; DNA 3 mg/ml, pH 7)	tobramycin concentration at which bundled DNA peak appears (Calf thymus (CT) DNA; DNA 3 mg/ml, pH 7)	preference of interaction, DNA versus F-actin (Calf thymus (CT) DNA; F-actin 5 mg/ml + DNA 1 mg/ml + tobramycin)	sequestration of tobramycin by DNA at raised lipid concentration (Calf thymus (CT) DNA; T/D approaching 1, L/D=2)	sequestration of tobramycin by DNA without lipid (Calf thymus (CT) DNA; T/D=0.5 and T/D=0.9, absence of lipids)	sequestration of tobramycin by DNA with cationic lipid (Calf thymus (CT) DNA; lipid concentration greater than or equal to that required for DNA charge neutralization)	NaCl concentration up to which the F-actin-lysozyme close pack bundling peak increases (F-actin)	salt concentration above which the lysozyme-actin bundling peak disappears (F-actin; NaCl)
NC[C@H]1O[C@H](O[C@H]2[C@H](O)[C@@H](O[C@H]3O[C@H](CO)[C@@H](O)[C@H](N)[C@H]3O)[C@H](N)C[C@@H]2N)[C@H](N)C[C@@H]1O [tobramycin]	20 × the minimal inhibitory concentration (MIC)	~5 µg/mL (≈ 10.7 µM)	1/20	~1	1.9 mM	preferentially interacts with DNA over F-actin	again unsequestered by the DNA	sequestered by DNA	not sequestered		
lysozyme: Hen Egg White Lysozyme (MW 14,300, Sigma Aldrich)										~150 mM	above 200 mM
